Source: the NIST ThermoML archive (doi:10.1016/j.jct.2015.06.015)
± gives the expanded uncertainty stated by the source.

Details: Crystal; DTA

## [Ag][I] [silver iodide]
  Triple point temperature: 832 ± 0.6 K

## [Cl-].[Na+] [sodium chloride]
  Triple point temperature: 1074 ± 0.6 K
